We go through eight molecules from ChEMBL document CHEMBL1140870, “Interrogating the mechanism of a tight binding inhibitor of AIR carboxylase” (Bioorg Med Chem, 2009).

Data set [1] deals with T1, Multifunctional protein ADE2 (Gallus gallus, UniProt P38024).
T1 sequence (P38024 whole entry): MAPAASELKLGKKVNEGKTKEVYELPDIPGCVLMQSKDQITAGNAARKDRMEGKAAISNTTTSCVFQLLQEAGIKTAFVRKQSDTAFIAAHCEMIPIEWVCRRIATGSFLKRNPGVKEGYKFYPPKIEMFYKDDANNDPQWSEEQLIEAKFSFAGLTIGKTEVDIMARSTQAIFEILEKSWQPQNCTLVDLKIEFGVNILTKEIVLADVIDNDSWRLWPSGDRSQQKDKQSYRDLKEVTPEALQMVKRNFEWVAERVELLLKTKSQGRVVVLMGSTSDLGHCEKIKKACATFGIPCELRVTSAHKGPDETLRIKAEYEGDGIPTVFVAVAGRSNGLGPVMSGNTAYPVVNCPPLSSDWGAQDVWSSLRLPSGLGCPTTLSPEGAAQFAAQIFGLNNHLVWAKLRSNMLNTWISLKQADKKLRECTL
The data set is described as follows: Inhibition of Gallus gallus AIR carboxylase by CAIR decarboxylation assay.

A short description of data set [2]: Dissociation constant, pKa of the compound. In kind it is physicochemical.

Bounds are passed on as bounds.

On to `Nc1c(C=O)ncn1[C@@H]1O[C@H](COP(=O)(O)O)[C@@H](O)[C@H]1O`, for which the Ki – broadly, the equilibrium dissociation constant of an inhibitor or competing ligand from its target – in data set [1] was found to be 62000 nM.
On the same count and under the same terms, for `Nc1c(C(=O)O)cnn1[C@@H]1O[C@H](COP(=O)(O)O)[C@@H](O)[C@H]1O` the value was 6000 nM; for `Nc1c(C(=O)O)nnn1[C@@H]1O[C@H](COP(=O)(O)O)[C@@H](O)[C@H]1O`, 2800 nM.
In data set [1], `Nc1c([N+](=O)[O-])ncn1[C@@H]1O[C@H](COP(=O)(O)O)[C@@H](O)[C@H]1O` showed a Ki of 0.34 nM. For the same molecule, the pKa – broadly, the pH at which an ionisable group is half protonated – in data set [2] turned out to be 0.3.
`O=[N+]([O-])c1cn([C@@H]2O[C@H](COP(=O)(O)O)[C@@H](O)[C@H]2O)cn1` returned a Ki in data set [1] of 1300 nM.
For the molecule `O=[N+]([O-])c1ccn([C@@H]2O[C@H](COP(=O)(O)O)[C@@H](O)[C@H]2O)c1`, the IC50 (as a rule, the concentration that gives 50% inhibition) in data set [1] is over 100000 nM.
`O=[N+]([O-])c1cnn([C@@H]2O[C@H](COP(=O)(O)O)[C@@H](O)[C@H]2O)c1` yielded a Ki in data set [1] of 22000 nM.
With `Nc1c([N+](=O)[O-])cnn1[C@@H]1O[C@H](COP(=O)(O)O)[C@@H](O)[C@H]1O`, the Ki in data set [1] was found to be 390 nM.
